Assay results: patent US11873486B2, “Modulating dsRNA editing, sensing, and metabolism to increase tumor immunity and improve the efficacy of cancer immunotherapy and/or modulators of intratumoral interferon” (Dana-Farber Cancer Institute, Inc., priority 2017, dated 2024)
Entries after “also recorded” stand apart in the source; their conditions may differ.

Columns and labels:
[1] = system: A549 ADAR1 knockout cells; assay: Immunoblot of interferon regulated genes in ADAR1 knockout cell lines; format: cell-based, human; conditions: 500 nM
Procedure: (§1) Cells were lysed in RIPA lysis buffer (Thermo Scientific) supplemented with 1× protease and phosphatase inhibitor cocktails (Roche). Protein extracts were analyzed by standard immunoblotting with the following antibodies: ADAR1 (D7E2M), MDA5 (D74E4), RIG-I (D14G6), ISG15 (22D2), USP18 (D4E7), PKR (#3072), STING (D2P2F), cGAS (D1D3G), IRF9 (D2T8M), PD-L1 (E1L3N), P-IRF3 Ser396 (4D4G), IRF3 (D6I4C), P-TBK1 Ser172 (D52C2), TBK1 (D1B4), P-EIF2α Ser51 (#9721), and EIF2α (D7D3) from Cell Signaling; P-PKR Thr446 (ab32036) from Abcam; R-actin C4 (sc-47778) from Santa Cruz. All antibodies were used at a dilution of 1:1000 except R-actin which was used at 1:4000). The following secondary antibodies were used at 1:5000 dilution: Goat anti-Rabbit IRDye 800CW (LI-COR, 926-32211) and Goat anti-Mouse IRDye […] (LI-COR, 926-68020). All immunoblots were imaged using the LI-COR digital imaging system and ImageJ.

[2] = system: ADAR1 knockout A549 cells; assay: Viability of ADAR1 knockout A549 cells with interferon or drug treatment; format: cell-based, human
Procedure: For drug treatment assays, cells were plated at a density of 3000 cells per well in a 96-well assay plate. The following day, cells were treated with ruxolitinib (INCB018424) from Selleck Chemicals; MRT67307 hydrocloride (SML0702) from Sigma-Aldrich; human interferon-alphal (#8927) from Cell Signaling; recombinant human IFN-beta 1a (mammalian) protein (114151) and recombinant human IFN-gamma protein (285-IF-100) from R&D Systems. For preincubation drug treatment experiments, cells were plated in the presence of ruxolitinib and were treated with interferon-0 and ruxolitinib the following day. Control wells were treated with dimethylsulfoxide (DMSO). Cell viability was assayed 3 or 6 days after drug treatment with CellTiter-Glo® Luminescent Cell Viability Assay kit (Promega). Viability was normalized to DMSO controls.
for interferon treatment assays, cells were plated at a low density of 3000 cells per well in a 96-well assay plate. The following day, cells were treated with human interferon-alpha 1 (Cell Signaling, #8927) or recombinant human IFN-beta 1a (mammalian) protein (PBL Assay Science, 114151). Control wells were treated with water. Cell viability was assayed 3 or 6 days after drug treatment with CellTiter-Glo© Luminescent Cell Viability Assay kit (Promega). Viability was normalized to controls. Apoptosis was assayed 3 days after interferon treatment with Caspase-Glo®3/7 Assay kit (Promega). Dose curves were obtained using least-squares nonlinear regression on a standard four-parameter logistic model using GraphPad Prism.

[3] = system: HCC366, NCI-H1650 and NCI-H196 cell lines; assay: Cell viability after CRISPR-Cas9 knockout of ADAR1 (CellTiter-Glo); format: cell-based, human; conditions: 6 days after CRISPR-Cas9 knockout of ADAR1
Description: (§2) guide RNA sequences were designed using the sgRNA designer tool on The RNAi Consortium (TRC) portal (available on the World Wide Web at portals.broadinstitute.org/gpp/public/analysis-tools/sgrnadesign). […] Guide sequences were cloned into the Cas9 expressing lentiviral vector CRISPRv2 (available on the World Wide Web at genomeengineering.org/crispr). For virus production, each CRISPRv2 vector and packaging vectors were introduced into 293T cells via calcium phosphate transfection (Clontech). Lentivirus was harvested in RPMI media supplemented with 10% FBS and filtered before addition to each cancer cell line. Infected cells were selected in 2 μg/ml puromycin or 10 μg/ml blasticidin for 7 days. Following this, protein lysates were harvested or cells were plated for proliferation assays in 96 well plates and grown in the presence of RPMI containing 10% FBS and 1 μg/ml puromycin or 5 μg/ml blasticidin. Immunoblotting confirmed decreased protein levels of each gene across the pool of infected cells. For cell viability experiments, cells were plated at a density of 3000 cells per well in a 96-well assay plate. Cell viability was assayed 3 and 6 days later with the CellTiter-Glo® Luminescent Cell Viability Assay kit (Promega). […]

A549 cells = assay: Cell viability after CRISPR-Cas9 knockout of ADAR1, control cells; format: cell-based, human; conditions: 6 days after CRISPR-Cas9 knockout of ADAR1
Description: as §2

ADAR1 = assay: Immunoblot of ADAR1 after CRISPR-Cas9 knockout; format: cell-based, human; conditions: A549 cells
Procedure: as §1
guide RNA sequences were designed using the sgRNA designer tool on The RNAi Consortium (TRC) portal (available on the World Wide Web at portals.broadinstitute.org/gpp/public/analysis-tools/sgrnadesign). […] Guide sequences were cloned into the Cas9 expressing lentiviral vector CRISPRv2 (available on the World Wide Web at genomeengineering.org/crispr). For virus production, each CRISPRv2 vector and packaging vectors were introduced into 293T cells via calcium phosphate transfection (Clontech). […]

ADAR = assay: Western blot of ADAR isoforms in B16 cells; format: cell-based, mouse; conditions: with or without IFNβ addition
Procedure: Whole cell lysates were prepared in lysis buffer (60 mM Tris HC, 2% SDS, 10% glycerol, complete EDTA-free protease-inhibitor (Roche, Basel, Switzerland), and 500 U/mL benzonase nuclease (Novagen, Merck, Darmstadt, Germany)). Samples were boiled at 100° C. and clarified by centrifugation. Protein concentration was measured with a BCA protein assay kit (Pierce, Dallas, Texas). Fifty to one hundred and fifty micrograms of protein was loaded on 4-12% Bolt® Bis-Tris Plus gels (Life Technologies, Carlsbad, CA) in MES buffer (Life Technologies). Protein was transferred to 0.45 μm nitrocellulose membranes (Bio-Rad, Hercules, CA). Membranes were blocked in Tris-buffered saline plus 0.1% Tween 20 (TBS-T) containing 5% non-fat dry milk for 1 hour at room temperature followed by overnight incubation with primary antibody at 4° C. Membranes were washed with TBS-T and incubated with HRP-conjugated secondary antibodies for 1 hour at room temperature. […] Blots were then analyzed using ImageJ and Adobe® Photoshop® software. […]
Whole cell lysates were prepared in lysis buffer (60 mM Tris HCl, 2% SDS, 10% glycerol, complete EDTA-free protease-inhibitor (Roche), and 500 U/mL benzonase nuclease (Novagen)). […] Protein concentration was measured with a BCA protein assay kit (Pierce). […] Blots were then analyzed using ImageJ and Adobe Photoshop software. […]

B16 tumor cells [4] = assay: In vitro cytokine stimulation and growth inhibition assay; format: cell-based, mouse; conditions: Adar-deficient versus control B16 tumor cells, 72 hours
Procedure: (§3) FIG. 9 includes 3 panels, identified as panels A, B, and C, which provide exemplary mechanisms of ADAR-induced sensitivity to checkpoint blockade. […] A certain number of B16 tumor cells (50 k; Adar null or control) were stimulated in vitro with cytokine for 72 hours and the cell numbers were then counted. […] A certain number of B16 tumor cells (50 k; Adar null or control) were stimulated with cytokine in vitro, washed to remove cytokine (for IFNβ), and evaluated via IFNβ ELISA. […] A certain number of B16 tumor cells (50 k; Adar null or control) were stimulated in vitro with cytokine for 72 hours and stained for Class I MHC and PD-L1.
Tumor cells were engineered as noted above and plated in DMEM+10% FBS containing the indicated combinations of cytokines: IFN (1,000 U/ml, PBL), IFN (100 ng/ml, Cell Signaling Technologies), TNF (10 ng/ml, PreproTech). For rescue/re-expression experiments, 10,000 cells were plated in 96-well plates and viable cells were enumerated after 72 hours using Cell Titer-Glo® (Promega, G7570). For all other growth inhibition assays, 50,000 cells were plated in 12-well plates and viable cells were counted after 72 hours using the Countess automated cell counting system (Thermo Fisher Scientific, C10227).

B16 tumor cells [5] = assay: IFNβ ELISA of tumor cell supernatant; format: cell-based, mouse; conditions: Adar-deficient B16 tumor cells
Procedure: as §3
Cells were seeded at a density of 10,000 cells per well in a 96-well plate. Mouse interferon beta (pbl assay science) was then added. After 24 hrs of incubation at 37° C., the supernatant was aspirated from the wells to remove the mouse interferon beta. The wells were then gently washed once with media. Fresh warm media was then replaced in the wells. After 48 hrs of incubation at 37° C., the supernatant was collected, and the concentration of interferon beta was determined using The VeriKine Mouse Interferon Beta ELISA Kit (pbl assay science).

Molecule: Nc1ncn([C@@H]2O[C@H](CO)[C@@H](O)[C@H]2O)c(=O)n1 [azacitidine, 5-azacytidine]
- expression of MDA5 [1]: induced expression of interferon regulated gene MDA5
- phosphorylation of EIF2α [1]: increased phosphorylation of EIF2α
- sensitization to ADAR1 knockout [2]: sensitized A549 cells to ADAR1 knockout

Molecule: AGATAGCCATGCTGAGCCAC (chemistry not fully specified) [ADAR1 sg2]
- viability [3]: decreased viability
- viability (A549 cells): no effect on control cells
- ADAR1 protein (immunoblot) (ADAR1): knockout of ADAR1 isoforms p150 and p110

Molecule: CACCGTCTACAGCCCTACCTTGCCA (antisense AAACTGGCAAGGTAGGGCTGTAGAC; listed as DNA, chemistry not fully specified) [Mouse Adar sgRNA 2, P110 and P150]
- depletion of ADAR isoforms (Western blot) (ADAR): effectively depleted both isoforms

Molecule: CACCGTCTGGATTCACAACTCCAGG (antisense AAACCCTGGAGTTGTGAATCCAGAC; listed as DNA, chemistry not fully specified) [Mouse Adar sgRNA1, P150 only]
- depletion of ADAR isoforms (Western blot) (ADAR): effectively depleted the P150 isoform of ADAR, but not the P110 isoform of ADAR

Molecule: GTGCATACACTCAAGCAGTG (chemistry not fully specified) [ADAR1 sg1]
- viability [3]: decreased viability
- viability (A549 cells): no effect on control cells
- ADAR1 protein (immunoblot) (ADAR1): knockout of ADAR1 isoforms p150 and p110

B1: IFNβ: mouse interferon beta (1000 U/mL, PBL) used on B16 cells (protein, UniProt P01575 22-182, looked up)
Interferon beta: INYKQLQLQERTNIRKCQELLEQLNGKINLTYRADFKIPMEMTEKMQKSYTAFAIQEMLQNVFLVFRNNFSSTGWNETIVVRLLDELHQQTVFLKTVLEEKQEERLTWEMSSTALHLKSYYWRVQRYLKLMKYNSYAWMVVRAEIFRNFLIIRRLTRNFQN
- cytokine-induced growth arrest (B16 tumor cells [4]): increases IFNβ and IFNγ-induced growth arrest; also recorded: increases susceptibility to IFNβ and IFNγ
- IFNβ secretion after interferon stimulation (B16 tumor cells [5]): make IFNβ when stimulated with IFNβ
